Like-named read-outs stand apart in the source and are kept apart here.
Key:
Jurkat = assay: In vitro proliferation assay (MTT), Jurkat; type: cell-based; conditions: Homo sapiens, MTT assay, value (SD, n) where given, read-out: Jurkat Leuk. (IC50 µM)
Outline: (§1)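 IC50 values come from live-cell estimates based on MTT reduction measured at 570 nm after 3 days of compound treatment. Cells are seeded at 1000 to 2500 per well in serum-supplemented RPMI 1640. They are stained with MTT for 2 to 4 hr at 37 C and the dye is then taken up in DMSO.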

HL-60 = assay: In vitro proliferation assay (MTT), HL-60; type: cell-based; conditions: Homo sapiens, HL-60; MTT assay; value (SD, n) where given; read-out: HL-60 Leuk. (IC50 µM)
Outline: as §1

[1] = system: neuronally differentiated PC12 cells, rat sympathetic neurons; conditions: cited from earlier work; for concentration of maximal protection from death: camptothecin-treated PC12 cells or rat sympathetic neurons; for cell death: camptothecin-treated, at day 6
PC-3 = assay: In vitro proliferation assay (MTT), PC-3; type: cell-based, human; conditions: Homo sapiens
Outline: (§2)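 Step one: plate 1000 to 2500 cells per well and let them recover overnight. Step two: treat with compound for 3 days. Step three: add MTT, dissolve dye in DMSO, read absorbance at 570 nm and determine IC50.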

NCI-H460 = assay: In vitro proliferation assay (MTT), NCI-H460; type: cell-based; conditions: Homo sapiens
Outline: as §1

MDA-MB-435 = assay: In vitro proliferation assay (MTT), MDA-MB-435; type: cell-based, human; conditions: Homo sapiens
Outline: as §2

Colo-205 = assay: In vitro proliferation assay (MTT), Colo-205; type: cell-based; conditions: Homo sapiens
Outline: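 After 3 days of compound exposure, MTT was added to Colo-205 cultures for 2–4 h at 37 °C. Formazan was dissolved in DMSO and absorbance read at 570 nm. Cells had been plated at 1000–2500/well and left to recover overnight; IC50 values came from the raw readings.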

cortical neuronal death = conditions: cited from earlier work; for IC50: Park et al. 1997, read-out: IC50, protection against camptothecin-induced cortical neuronal death
[2] = system: PC-3 Human Prostate Tumors; assay: PC-3 human prostate tumor xenograft in nude mice; type: in vivo; parameters: unit not given here; conditions: Table 5
Description: (§3) Antitumor efficacy is assessed using two subcutaneous human tumor xenograft models. The studies are performed using conventional assay techniques. Briefly, HL-60 (leukemia, 5 x10^5 cells) and PC-3 (prostate, 5 x 10^6 cells) tumor cells are injected subcuateously into nude mice (Crl-CD1-Br-nu, Charles River Laboratory, Wilmington, MA). Dosing with compounds began when tumors reached 50 to 100 mm^3. The dose route/schedule for the test compounds is ip/qld (5x/wk). The test doses are set based on the maximum tolerated dose (MTD). […] The test doses for the efficacy studies are set at 1/3rd the MTD (low dose) and the MTD (high dose). The results are shown in Tables 4 and 5 (HL-60, leukemia) (PC-3, prostate cancer). The length of the treatment phase is dependent on the tumor growth rate for the two models. This treatment phase is typically about 3 weeks for the HL-60 model and about 5 weeks for the PC-3 model. […] Dosing with flavopiridol is for the same time frame as for the experimental compounds in both xenograft models. Tumor volume (twice weekly) and body weights (once weekly) are monitored throughout the course of the treatment phase of the experiment. Tumor sizes are measured by external caliper measurements of protruding tumor. Volumes are calculated using the following formula: volume =½ (a x b2), where b is the smaller of two perpendicular diameters.

cdk1/cyclin B = cdk1/cyclin B (Homo sapiens, UniProt P06493); assay: Cyclin-dependent kinase assay, cdk1/cyclin B; conditions: CDK1 IC50, nM, Histone H1, 10 µM ATP
Chain of cdk1/cyclin B (P06493 whole entry): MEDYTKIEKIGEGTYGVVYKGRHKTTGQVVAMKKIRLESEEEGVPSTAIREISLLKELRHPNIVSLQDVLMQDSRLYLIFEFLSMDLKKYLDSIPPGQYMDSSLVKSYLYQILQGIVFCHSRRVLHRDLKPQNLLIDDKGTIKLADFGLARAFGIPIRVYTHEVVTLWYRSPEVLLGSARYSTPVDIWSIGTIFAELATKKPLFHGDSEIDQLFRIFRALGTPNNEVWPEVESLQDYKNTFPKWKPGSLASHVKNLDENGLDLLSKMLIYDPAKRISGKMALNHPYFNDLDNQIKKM
Chain of cdk1/cyclin B (P14635 whole entry partner): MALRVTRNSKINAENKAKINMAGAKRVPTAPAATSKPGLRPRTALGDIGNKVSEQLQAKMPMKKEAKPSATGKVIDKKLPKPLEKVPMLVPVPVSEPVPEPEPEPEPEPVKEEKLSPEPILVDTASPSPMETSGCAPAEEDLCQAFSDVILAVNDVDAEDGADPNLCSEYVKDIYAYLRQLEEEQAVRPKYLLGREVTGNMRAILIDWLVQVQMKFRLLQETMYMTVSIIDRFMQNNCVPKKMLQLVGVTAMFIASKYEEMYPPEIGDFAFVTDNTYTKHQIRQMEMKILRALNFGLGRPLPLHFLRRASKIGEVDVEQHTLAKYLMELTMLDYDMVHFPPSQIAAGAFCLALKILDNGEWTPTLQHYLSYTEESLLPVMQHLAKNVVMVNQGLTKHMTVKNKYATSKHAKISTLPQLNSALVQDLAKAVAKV

[3] = Red blood cell binding, human whole blood; type: in vitro ADME; conditions: 30 minutes at 37°C, 500 ng/ml
Description: (§4) Compounds, including one positive control, are assessed for red blood cell (RBC) uptake, using a modified procedure based on the protocol reported in Sun, J.X.S., et al. High-performance liquid chromatographic analysis, plasma protein binding and red blood cell partitioning of phenprobamate. Biopharmaceutics and Drug Disposition, 8 (1987) 341-351.
(§5) Briefly, RBC uptake is evaluated by comparison of the levels in spiked plasma (n=3) and plasma isolated from spiked whole blood (n=3). Compounds are incubated with human and mouse whole blood, respectively, for 30 minutes at 37°C using a nominal concentration of 500 ng/ml. Following centrifugation, the plasma is removed and submitted for analysis. Each compound is also spiked into blank plasma at a nominal concentration of 500 ng/ml, and submitted for analysis. Levels in the two plasma samples (Cp' and Cp in the equation below) and the blood hematocrit are used to determine the red blood cell to plasma ratio (Crbc/Cp). (Crbc)/(Cp) = (Cpʹ)/(Cp•H)-((1-H))/(H) [formula] In equation 1, Cp' is the level of drug in the spiked "blank" plasma, Cp is the level of drug in the plasma of spiked whole blood, and H is the hematocrit. The hematocrit values are determined as 0.4 for human whole blood and 0.41 for mouse whole blood. The samples are analyzed with ESI LC/MS, using positive ion detection with an internal standard.
(§6) The red blood cell to plasma ratio is determined for each compound using equation 1. Tables 6 and 7 summarize the respective mean Crbc/Cp values and standard deviations for mouse and human whole blood, respectively, in descending order based on the red blood cell to plasma ratio, where"*" denotes Positive Control, and "ND" denotes Not Determined. MDL 108552 is included as a positive control for red blood cell uptake. Table 6. Red Blood Cell to Plasma Ratio for compounds in mouse whole blood

[4] = Red blood cell binding, mouse whole blood; type: in vitro ADME; conditions: 30 minutes at 37°C, 500 ng/ml
Description: as §4, §5, §6

cdk2/cyclin E = cdk2/cyclin E (Homo sapiens, UniProt P24941); assay: Cyclin-dependent kinase assay, cdk2/cyclin E; conditions: CDK2 IC50, nM, GST-pRb substrate, 10 µM ATP
HL-60 Human Leukemia = assay: HL-60 human leukemia xenograft in nude mice; type: in vivo; conditions: Table 5
Description: as §3

cdk4/cyclin D1 = cdk4/cyclin D1 (Homo sapiens, UniProt P11802); assay: Cyclin-dependent kinase assay, cdk4/cyclin D1; type: biochemical; conditions: cyclin D1/cdk4; GST-pRb substrate, 10 µM ATP
Chain of cdk4/cyclin D1 (P11802 whole entry): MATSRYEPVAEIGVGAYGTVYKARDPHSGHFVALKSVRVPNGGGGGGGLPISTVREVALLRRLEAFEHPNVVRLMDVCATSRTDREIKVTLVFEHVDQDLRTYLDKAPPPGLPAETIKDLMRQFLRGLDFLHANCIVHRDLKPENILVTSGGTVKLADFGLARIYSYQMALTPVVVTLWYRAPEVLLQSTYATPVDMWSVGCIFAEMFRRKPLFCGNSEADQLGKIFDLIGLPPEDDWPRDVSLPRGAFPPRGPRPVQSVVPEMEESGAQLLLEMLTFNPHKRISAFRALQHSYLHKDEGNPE
Chain of cdk4/cyclin D1 (P24385 whole entry partner): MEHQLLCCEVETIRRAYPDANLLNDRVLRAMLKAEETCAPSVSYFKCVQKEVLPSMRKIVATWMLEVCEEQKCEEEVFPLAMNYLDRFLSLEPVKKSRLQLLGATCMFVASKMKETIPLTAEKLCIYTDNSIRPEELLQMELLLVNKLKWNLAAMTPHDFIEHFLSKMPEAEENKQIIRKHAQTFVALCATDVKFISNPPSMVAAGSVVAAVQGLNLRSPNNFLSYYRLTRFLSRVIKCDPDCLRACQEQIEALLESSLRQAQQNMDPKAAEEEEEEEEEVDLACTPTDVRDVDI

[5] = Bioavailability experiment in mice given single intravenous cassette doses
Description: (§7) Male mice are given single intravenous cassette doses of CDK inhibitor compounds.
(§8) Doses are adjusted for the weight of the individual dihydrochloride and trihydrochloride salts. The compounds are stored desiccated within a closed cabinet at room temperature before use. Dose levels are prepared on the morning of each study.
(§9) A single intravenous cassette dose (18 or 15 mg/kg free base) is administered. For each compound, this is equivalent to a dose of approx. 3 mg/kg free base. […] The dose is administered at a volume of 10 ml/kg (total volume of approximately 0.25 ml/animal).
(§10) Male mice (Hsd:ICR (CD-1® SD®), Harlan), each weighing approximately 20 - 30 g at the start of the study. […] Water is available ad libitum throughout the study.
(§11) Dose Administration and Sample Collection: • A single cassette dose of 5-6 compounds is administered by bolus injection into the tail vein over a 10 - 15-second period. […] Whole blood (approximately 0.6 ml/sample) is obtained by cardiac puncture and transferred to 3 ml glass tubes containing 45 U sodium heparin.
(§12) Sample Processing: Plasma: Whole blood is centrifuged at approximately 3,200 rpm for 10 min at approximately 5°C and the plasma (approx. 0.3 ml/sample) is transferred to chilled plastic vials and stored at approx. -70°C until bioanalysis.
(§13) Sample Analysis: Concentrations of each test article in plasma are quantitated by a non-validated method based on LC/MS using the following protocol.
(§14) Samples are removed from the freezer, allowed to thaw at room temperature, and vortexed to insure complete homogenization prior to sample manipulation. Samples are then prepared according to the following scheme: • 1. transfer 48 µL of plasma (blank mouse sample) into a 12 x 75 mm test tube. • 2. add 12 µL of working standard to the blank plasma for standard curve preparation. • 3. […] Inject 25 µL on LC/MS.
(§15) Data Analysis: Concentrations of Compounds in plasma of individual animals are determined by bioanalytics. […] Statistical analyses are limited to simple expressions of variation (mean and standard deviation). The plasma AUC (area-under-curve) is determined by the linear trapezoidal rule. […] All PK parameters are determined by noncompartmental methods using WinNonlin version 3.0 (Pharsight Corp). Plasma vs. time profiles are prepared by Sigma Plot (SPSS, Inc.).

in vivo = conditions: male, Hsd:ICR (CD-1), mouse, plasma, iv
Description: as §7, §8, §9, §10, §11, §12, §13, §14, §15

[6] = camptothecin-treated neuronal cells

**Q.** For `CN1CC[C@H](c2c(O)cc(O)c3c(=O)cc(-c4ccccc4Cl)oc23)[C@H](O)C1` [Flavopiridol, flavopiridol, reference compound], which IC50 (Jurkat) is on record?
**A.** 0.08 µM

**Q.** And the IC50 (HL-60)?
**A.** 0.02 µM

**Q.** What about the “concentration of maximal protection from death” value [1] of the same compound?
**A.** 1 µM

**Q.** What about the cell death [1] of the same compound?
**A.** approximately 30%

**Q.** And the IC50 (PC-3; PC-3, MTT assay, value (SD, n) where given, read-out: PC-3 Prostate (IC50 µM))?
**A.** 0.08 µM

**Q.** And the IC50 (NCI-H460; NCI-H460, MTT assay, value (SD, n) where given, read-out: H-460 Lung (IC50 µM))?
**A.** 0.07 µM

**Q.** What about the IC50 (MDA-MB-435; MDA-MB-435, MTT assay, value (SD, n) where given, read-out: MB-435 Breast (IC50 µM)) of the same compound?
**A.** 0.09 µM

**Q.** What about the IC50 (Colo-205; COLO 205, MTT assay, value (SD, n) where given, read-out: Colo-205 Colon (IC50 µM)) of the same compound?
**A.** 0.03 µM

**Q.** And the IC50 (cortical neuronal death)?
**A.** 100 nM

**Q.** With `Cn1cnc2c(NCc3ccccc3)nc(NCCO)nc21` [Olomoucine, 6-(benzylamino)-2-[(2-hydroxyethyl)amino]-9-methylpurine] as the compound, how does the “concentration of maximal protection from death” value [1] read?
**A.** 200 µM

**Q.** What about the cell death [1] of the same compound?
**A.** approximately 30%

**Q.** And the IC50 (cortical neuronal death)?
**A.** 100000 nM

**Q.** What does the source list for `Cl.Cl.N[C@H]1CC[C@H](Nc2nc(NC3CCN(C(=O)Oc4ccccc4)CC3)c3ncn(C4CCCC4)c3n2)CC1` [compound 85, trans-4-[2-(4-Amino-cyclohexylamino)-9-cyclopentyl-9H-purin-6-ylamino]-piperidine-1-carboxylic acid phenyl ester dihydrochloride]?
**A.** PC-3 Mean Vol. ± SD ([2]; dose 1 mg/kg ip): 912 ± 755; PC-3 Mean Vol. ± SD ([2]; dose 3 mg/kg ip): 1208 ± 1247; IC50 (cdk1/cyclin B): 26 nM; Mean Red Blood Cell to Plasma Ratio [3]: 7.1; IC50 (PC-3; PC-3, read-out: PC-3 Prostate (IC50 µM)): 0.06 µM; IC50 (NCI-H460; NCI-H460, read-out: H-460 Lung (IC50 µM)): 0.06 µM; IC50 (MDA-MB-435; MDA-MB-435, read-out: MB-435 Breast (IC50 µM)): 0.03 µM; Mean Red Blood Cell to Plasma Ratio [4]: 6.1; IC50 (Colo-205; COLO 205, read-out: Colo-205 Colon (IC50 µM)): 0.03 µM; IC50 (cdk2/cyclin E): 8 nM; HL60 Mean Vol. ± SD (HL-60 Human Leukemia; dose 1 mg/kg ip): 3590 ± 2674; HL60 Mean Vol. ± SD (HL-60 Human Leukemia; dose 3 mg/kg ip): 5215 ± 4068; IC50 (cdk4/cyclin D1): 65 nM; Conc. (ng/ml) in plasma ([5]; Cassette #1, single 18 mg/kg intravenous cassette dose, mice, 24 h, BLQ = below assay quantification limit): BLQ; Cls ([5]; mice plasma, single intravenous cassette dose, 3 mg/kg/compound (18 mg/kg Total Dose), Cassette #1): 107.1 mL/min/kg; AUC(0-inf) (in vivo; 3 mg/kg): 467 ng·h/mL; Cmax (in vivo; 3 mg/kg): 843 ng/mL; half-life (in vivo; 3 mg/kg): 2.3 h; concentration at 0.083 h (in vivo; 18 mg/kg): 843 ± 124 ng/mL; concentration at 0.25 h (in vivo; 18 mg/kg): 342 ± 45.1 ng/mL; concentration at 0.5 h (in vivo; 18 mg/kg): 164 ± 15.7 ng/mL; concentration at 1 h (in vivo; 18 mg/kg): 89 ± 21.5 ng/mL; concentration at 3 h (in vivo; 18 mg/kg): 14.3 ± 7.1 ng/mL; concentration at 6 h (in vivo; 18 mg/kg): 5.2 ± 1.9 ng/mL; concentration at 8 h (in vivo; 18 mg/kg): 3.2 ± 0.8 ng/mL

**Q.** Which “prevention of cell death” value [1, 6] does the source give for `Cn1cnc2nc(NCCO)nc(NCc3ccccc3)c21` [iso-olomoucine] here?
**A.** failed to prevent the cell death

**Q.** What about the “prevention of cell death” value (cortical neuronal death; [6]) of the same compound?
**A.** failed to prevent the cell death

Reference: patent EP1377579B1 (Aventis Pharmaceuticals Inc., priority 2000, dated 2002)
